Test results published in patent US20260055441A1, “A PCR-ELISA ANALOGOUS ANTIBODY-FREE METHOD FOR DETECTING A TARGET NUCLEIC ACID IN A SAMPLE” (UNIVERSITÄT HEIDELBERG, priority 2022, published 2026).
Entries after “also recorded” stand apart in the source; their conditions may differ. Marks after values point to notes of the source that are not given here. Residues, ends and D or L forms follow the SMILES beside them. *: point of attachment. AMC = Cc1cc(=O)oc2cc(N*)ccc12; Cbz = O=C(OCc1ccccc1)*

Legend:
[1] = cited from earlier work
latent papain P13 [2] = target: T1, latent papain P13 (Carica papaya, UniProt P00784); experiment: Latent papain reactivation assay with thiol activators at 10 μM, rates normalized to 10 μM cysteine (FIG. 18); format: biochemical; settings: activator 10 μM, latent papain 1 nM, Z-Phe-Arg-AMC 2 μM; for normalized ratio rate/rate 10 μM cysteine of substrate hydrolysis after reactivation of latent papain: well buffer pH 7, no TCEP
T1 construct: purchased Sigma Aldrich (Munich, Germany); host or cells: Papaya latex (natural source)
T1 sequence (P00784 134-345): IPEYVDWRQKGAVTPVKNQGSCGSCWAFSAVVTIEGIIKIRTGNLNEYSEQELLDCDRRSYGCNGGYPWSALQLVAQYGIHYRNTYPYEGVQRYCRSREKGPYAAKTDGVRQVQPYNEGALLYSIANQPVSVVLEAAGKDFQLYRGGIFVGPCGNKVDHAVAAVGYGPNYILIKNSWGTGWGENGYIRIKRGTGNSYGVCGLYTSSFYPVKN
Method: All following described fluorometric assays (Examples 1-3) are based on the reaction of reversibly inactivated papain (latent papain) with an activator containing either sulfur or selenium (with the exception of TCEP). Different latent papain forms, buffer compositions and activators in various concentrations were compared. Papain was hereby transferred in buffer (standard well buffer consisted of 0.1 M phosphate pH 7, 4 mM EDTA, 0.01% Brij35 and if activators contained diselenides, 1 μM TCEP) mixed with activator and substrate inside 96 well plates (without prior washing of the plates). After reactivation, active papain hydrolyses the substrate Z-Phe-Arg-AMC (2 μM) and the resulting fluorescence was tracked every minute for 2 h. The slopes of the corresponding curves were calculated for the linear portion within the first 30 minutes and the resulting reaction rates were directly compared. Resulting reaction rates directly reflect reactivation efficiencies of each activator under each reaction condition. […] After addition of activator a fraction of latent papain is immediately reactivated in rather non-stoichiometric proportions. Complete reactivation can generally only be achieved with great excess of activator. The partial reactivation with smaller activator amounts appears almost instantaneously because the resulting reaction curve show linear progression from the start except for very low activator concentrations. After reactivation, all different latent papain forms result in the same active enzyme. If different latent papain forms show different reaction rates in identical activation assays, the efficiency of reactivation with the applied activator can be deduced. The same applies for reactivation of one latent papain form with different activators or reaction conditions.
Several thiol compounds and cysteine containing peptide activators (see Example 4.1) were compared for their potential to reactivate latent papain. To this end, the thiol compounds and cysteine containing peptide activators were utilized in reactivation assays (see Example 5, 5.2.2.2, fluorometric method 2) of papain P13 (see Example 1, 1.2) with an activator concentration of 10 μM. For thiols not completely soluble in phosphate buffer pH 7 at high concentrations, the 1 mM stock solution was prepared in DMSO, resulting in 1% DMSO in the reaction mixture. In order to normalize the observed reaction rates between assays, a 10 μM cysteine sample was additionally measured in every assay and reaction rates of the examined thiols were divided through the reaction rates produced by the 10 μM cysteine standard. Additionally, a measurement with 1 mM cysteine was performed in order to achieve maximal papain activation and therefore the maximal reaction rate within the confines of the assay. The resulting normalized rates are compared in FIG. 18.
Different assays of reactivating latent papain in solution were conducted in the course of this work. Various buffer compositions, supplements, 96 well plates, substrates, activators, concentrations as well as different latent papain forms were compared. In order to get an overview of all experiments, a standard method is described in the following and variations of this method are subsequently defined. First, the well buffer was prepared (0.1 M phosphate buffer pH 7, 4 mM EDTA, 0.01% Brij35). A 1 mM TCEP solution was prepared with 3 mM NaOH in 0.1 M Tris-HCl buffer pH 8. Papain substrate (Z-Phe-Arg-AMC or Suc-Leu-Leu-Val-Tyr-AMC) was prepared as a 200 μM solution in water and transferred equally to a PCR strip. Three serial dilutions of the activating agent with well buffer were used in the different experiments and the corresponding pipetting schemes are shown in Table 9. Papain was diluted to 0.1 μM with well buffer and transferred equally to a PCR strip. After preparation of the abovementioned solutions, TCEP (1 mM solution) was added to well buffer to yield a final TCEP concentration of 1.1 μM. […]

papain [3] = target: T2, papain (Carica papaya, UniProt P00784); settings: literature (Whitesides group; Lukesh et al., 2012); cited from earlier work
T2 sequence (P00784 134-345): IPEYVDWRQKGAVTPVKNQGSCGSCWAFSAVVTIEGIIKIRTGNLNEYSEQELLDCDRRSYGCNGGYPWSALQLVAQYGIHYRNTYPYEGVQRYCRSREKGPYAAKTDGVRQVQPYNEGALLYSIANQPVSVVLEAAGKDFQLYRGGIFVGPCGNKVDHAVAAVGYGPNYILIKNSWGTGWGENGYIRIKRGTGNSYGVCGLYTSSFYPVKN

latent papain = target: T3, latent papain (Carica papaya, UniProt P00784); experiment: Latent papain reactivation with selenium/thiol activators in presence of TCEP, rates normalized to blank (FIG. 22); format: biochemical; settings: latent papain 1 nM; for activator efficiency (normalized rate/rate blank), in words: 50 pM-100 nM activator, 1 μM TCEP (FIG. 22)
T3 construct: purchased Sigma Aldrich (Munich, Germany); host or cells: Papaya latex (natural source)
T3 sequence (P00784 134-345): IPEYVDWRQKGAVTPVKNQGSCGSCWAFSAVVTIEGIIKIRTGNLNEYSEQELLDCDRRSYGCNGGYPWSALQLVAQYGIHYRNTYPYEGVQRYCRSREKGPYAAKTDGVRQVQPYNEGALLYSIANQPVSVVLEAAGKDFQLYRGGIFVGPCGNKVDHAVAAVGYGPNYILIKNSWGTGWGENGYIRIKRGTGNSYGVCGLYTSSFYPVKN
Method: To this end, cysteine ethyl ester, DTT, DTBA (9) and SeDTBA (11) were chosen for a direct comparison. […] The resulting reaction rates were normalized against the background activity and the resulting normalized rates are presented in FIG. 22 for the concentration range of 50 pM-100 nM.
Different assays of reactivating latent papain in solution were conducted in the course of this work. Various buffer compositions, supplements, 96 well plates, substrates, activators, concentrations as well as different latent papain forms were compared. In order to get an overview of all experiments, a standard method is described in the following and variations of this method are subsequently defined. First, the well buffer was prepared (0.1 M phosphate buffer pH 7, 4 mM EDTA, 0.01% Brij35). A 1 mM TCEP solution was prepared with 3 mM NaOH in 0.1 M Tris-HCl buffer pH 8. Papain substrate (Z-Phe-Arg-AMC or Suc-Leu-Leu-Val-Tyr-AMC) was prepared as a 200 μM solution in water and transferred equally to a PCR strip. Three serial dilutions of the activating agent with well buffer were used in the different experiments and the corresponding pipetting schemes are shown in Table 9. Papain was diluted to 0.1 μM with well buffer and transferred equally to a PCR strip. […] After mixing, 30 μL of the prepared activator concentrations (see Table 9) were added and mixed. In the last step, 3.8 μL of the substrate solution was added and mixed, to yield a final well composition of 0.1 M phosphate buffer pH 7, 1 nM papain, 2 μM substrate, activator (see Table 9), 4 mM EDTA, 0.01% Brij35 and 1 μM TCEP. For experiments with only one activator concentration of 10 μM, the transferred well buffer for each well was 368.6 μL, followed by 3.8 μL of papain, substrate and activator (1 mM in well buffer) respectively.

latent papain P13 [4] = target: T1, latent papain P13; experiment: Screening of peptide-based papain activators, rates normalized to cysteine ethyl ester (FIG. 19, FIG. 20); format: biochemical
Method: L-Cysteine ethyl ester was utilized in identical peptide concentrations as a standard in order to calculate normalized reaction rates for each synthesized peptide.
[…] The assays were conducted in well buffer with 1 nM latent papain P13. In order to give a clear overview, only the normalized rates for activator concentrations of 50 nM are depicted and compared.
Additionally, 1 μM TCEP was added to each well of the cysteine concentration series in order to examine the influence of TCEP on reaction rates of thiols.
Different assays of reactivating latent papain in solution were conducted in the course of this work. Various buffer compositions, supplements, 96 well plates, substrates, activators, concentrations as well as different latent papain forms were compared. In order to get an overview of all experiments, a standard method is described in the following and variations of this method are subsequently defined. First, the well buffer was prepared (0.1 M phosphate buffer pH 7, 4 mM EDTA, 0.01% Brij35). A 1 mM TCEP solution was prepared with 3 mM NaOH in 0.1 M Tris-HCl buffer pH 8. Papain substrate (Z-Phe-Arg-AMC or Suc-Leu-Leu-Val-Tyr-AMC) was prepared as a 200 μM solution in water and transferred equally to a PCR strip. Three serial dilutions of the activating agent with well buffer were used in the different experiments and the corresponding pipetting schemes are shown in Table 9. Papain was diluted to 0.1 μM with well buffer and transferred equally to a PCR strip. […] 342.4 μL of TCEP containing well buffer was transferred to each well, followed by 3.8 μL papain solution. After mixing, 30 μL of the prepared activator concentrations (see Table 9) were added and mixed. In the last step, 3.8 μL of the substrate solution was added and mixed, to yield a final well composition of 0.1 M phosphate buffer pH 7, 1 nM papain, 2 μM substrate, activator (see Table 9), 4 mM EDTA, 0.01% Brij35 and 1 μM TCEP. For experiments with only one activator concentration of 10 μM, the transferred well buffer for each well was 368.6 μL, followed by 3.8 μL of papain, substrate and activator (1 mM in well buffer) respectively.

[5] = Jacob et al., 2003; cited from earlier work
papain [6] = target: T2, papain; settings: Ménard et al. 1990; cited from earlier work
H2N-CLR-CONH2 = target: T4, H2N-CLR-CONH2
T4 chain: CLR

[7] = target: T5, dU-triazole-PEG3-ULR dimer (21) (not fully specified)
T5 chain: ULR

H2N-CFR-CONH2 = target: T6, H2N-CFR-CONH2
T6 chain: CFR

[8] = FIG. 20, concentration series 50 nM-10 μM
[9] = concentration series 50 nM-10 μM, papain P13 1 nM (FIG. 20)

O=[N+]([O-])c1ccc(S)nc1 [2-mercapto-5-nitropyridine, 2-Mercapto-5-nitropyridine]
pKa of thiol, as discussed in text [1]: 7.1 | reaction rate compared to L-cysteine (latent papain P13 [2]; pH 7): less than 15%

CN(C(=O)CS)N(C)C(=O)CS [DMH, N,N-dimethyl-N,N′-bis(mercaptoacetyl)hydrazine]
papain activation rate compared to DTT (papain [3]): 32 times

CN(C)C(=O)[C@H](S)CC[C@H](S)C(=O)N(C)C [DTA, meso-2,5-dimercapto-N,N,N,N-tetramethyladipamide]
papain activation rate compared to DTT (papain [3]): 4.5 times

N[C@H](CS)CCS [DTBA (9), dithiobutylamine]
rate relative to DTT (latent papain; activator 50 nM, 1 μM TCEP): 13.6 times | papain activation rate compared to DTT (papain [3]): 14 times

O[C@@H](CS)[C@@H](O)CS [DTT]
activator efficiency (normalized rate/rate blank), in words (latent papain): no substantial rate increase

CCOC(=O)[C@@H](N)CS.Cl [L-cysteine ethyl ester, L-Cysteine ethyl ester hydrochloride]
activator efficiency (normalized rate/rate blank), in words (latent papain): no substantial rate increase | potency relative to (L-)cysteine (latent papain P13 [4]; [8]): approximately 2.25 times

N[C@@H](CS)C(=O)O [L-cysteine]
redox potential E^0′ [5]: −0.233 V | normalized rate compared to cysteine ethyl ester (latent papain P13 [4]; [9]): around 40% | normalized rate compared to the tripeptide H2N-CLR-CONH2 (latent papain P13 [4]; [9]): around 25%

Cc1cc(=O)oc2cc(NC(=O)[C@H](CCCNC(=N)N)NC(=O)[C@H](Cc3ccccc3)NC(=O)OCc3ccccc3)ccc12 [Z-Phe-Arg-AMC, Z-Phe-Arg 7-amido-4-methylcoumarin] (Cbz-Phe-Arg-{AMC})
Km (papain [6]): 420 µM | kcat (papain [6]): 52 s⁻¹

SCc1ccccc1 [benzyl mercaptan, Benzylmercaptan]
pKa (H2O) ([1]; published values, source mark b or d legible): 9.4^b | normalized ratio rate/rate 10 μM cysteine of substrate hydrolysis after reactivation of latent papain (latent papain P13 [2]): 1.69

O=S(=O)(CCS)CCS [bis(2-mercaptoethyl) sulfone]
pKa of thiol, as discussed in text [1]: 7.9 | normalized ratio rate/rate 10 μM cysteine of substrate hydrolysis after reactivation of latent papain (latent papain P13 [2]): 3.17

N[C@@H](C[SeH])C(=O)O [selenocysteine]
pKa ([1]; Huber et al. 1967): 5.2 | redox potential E^0′ [5]: −0.488 V | activator efficiency, in words (latent papain P13 [4]; [8]): more potent activators compared to the tripeptide | rate relative to the tripeptide H2N-CLR-CONH2 (latent papain P13 [4]; concentration series 50 nM-10 μM (FIG. 20), selenocysteine prepared with TCEP): 6.5 times

seleno-dithiobutylamin [SeDTBA (11)]
activator efficiency (normalized rate/rate blank), in words (latent papain): second most efficient activator; also recorded: almost twice as high compared to DTBA (9)

B1: latent papain, reversibly inactivated with S-methyl methanethiosulfonate (-S-S-CH3) (protein)
chain: IPEYVDWRQKGAVTPVKNQGSCGSCWAFSAVVTIEGIIKIRTGNLNEYSEQELLDCDRRSYGCNGGYPWSALQLVAQYGIHYRNTYPYEGVQRYCRSREKGPYAAKTDGVRQVQPYNEGALLYSIANQPVSVVLEAAGKDFQLYRGGIFVGPCGNKVDHAVAAVGYGPNYILIKNSWGTGWGENGYIRIKRGTGNSYGVCGLYTSSFYPVKN
normalized ratio rate/rate 10 uM cysteine of substrate hydrolysis after reactivation of latent papain (1 nM), activator 10 uM (fold of the rate with L-cysteine) (H2N-CLR-CONH2): 2 | normalized ratio rate/rate blank of substrate hydrolysis after reactivation of latent papain (1 nM) with activator 1-15 nM [7]: The normalized reaction rates for papain P20 now appeared the highest of all papain forms | normalized ratio rate/rate 10 uM cysteine of substrate hydrolysis after reactivation of latent papain (1 nM), activator 10 uM (fold of the rate with L-cysteine) (H2N-CFR-CONH2): 2
